The values below come from US20090098066A1, “Substituted bicyclo [2.2.2] oct/5-ene compounds and their use as cooling agents” (priority 2005, published 2009).

One series concerns panelists. In words: Cooling intensity: panelists taste aqueous solutions versus menthol at 2 ppm. The class given is in vivo. The following applies: aqueous solution with cooling intensity similar or slightly higher than a solution of menthol at 2 ppm.
Series [1] deals with panelist. The series can be described thus: Application in beverage (clear lemon/lime soda), tasted by a panelist. The class given is in vivo. The following applies: 1.2 mL of a 0.5% ethanolic solution in a 355 mL can of clear lemon/lime soda. The method, then: 1.2 mL of a 0.5% ethanolic solution of 1-isopropyl-4-methyl-bicyclo[2.2.2]oct-5-ene-2,3-dicarbinol is added in a 355 mL (12 fl oz.) can of clear lemon/lime soda.

Series [2] deals with panelist. In words: Application in chewing gum, gum stick chewed by a panelist. Type of series: in vivo. The conditions noted are these: chewing gum with 0.10 g compound in about 100 g gum, with peppermint oil; chewed for 15 minutes. On the procedure:
All the ingredients are mixed in the pre-warmed gum base. The mixture is spread in thick films, cooled down and cut in sticks. A gum stick is chewed by a panelist for 15 minutes. […] No off-note was observed.

In series [3] the test system is panelist. The conditions noted are these: general statement, not tested here; cited from earlier work.

“1-Isopropyl-4-methyl-bicyclo[2.2.2]oct-5-ene-2-carboxylic acid and 1-isopropyl-4-methyl-bicyclo[2.2.2]oct-5-ene-3-carboxylic acid [Example 2]” returned a Concentration in the series with panelists of 2 ppm.
For `CC(C)C12C=CC(C)(CC1)C(CO)C2CO` (stereo not drawn) [Example 1, 1-Isopropyl-4-methyl-bicyclo[2.2.2]oct-5-ene-2,3-dicarbinol], the cooling sensation result is listed as “immediate cooling sensation in the mouth” in the series with panelist [1] and “immediate cooling sensation is felt in all areas of the mouth” in the series with panelist [2]. Further, the throat burning entry with panelist [1] is given as “none of the throat burning”. The same compound had a Concentration with panelists of 2 ppm.
Compound `CCNC(=O)C1CC2(C)C=CC1(C(C)C)CC2` (stereo not drawn) [Example 4, N-ethyl 1-Isopropyl-4-methyl-bicyclo[2.2.2]oct-5-ene-2-carboxamide] yielded a Concentration with panelists of 3 ppm.
The same measure, in the same setting: as for `CC1=CC2C(O)CC1CC2C(C)C` (stereo not drawn) [Example 6, 7-isopropyl-5-methyl-bicyclo[2.2.2]oct-5-en-2-ol], the figure is 5 ppm.
In the case of `CCNC(=O)C1CC(C)CCC1C(C)C` (stereo not drawn) [WS-3, N-ethyl p-menthanecarboxamide, reference compound], in the series on panelists, the Concentration came to 1.5 ppm. In addition, the “throat burning (stated as known characteristic)” value in the series with panelist [3] is listed as “throat burning that is characteristic”.
